Activity calls are given as the source filed them. No cut-off for these calls is given here. Where a SMILES comes first, the peptide text is derived from it. [ ]: non-standard residue; d: D form. 2Thi = N[C@@H](Cc1cccs1)C(=O)O; hSer = N[C@@H](CCO)C(=O)O; Nle = CCCC[C@H](N)C(=O)O
Assays:
[1] = test system: MKN-7; assay: Anticancer activity against human MKN-7 cells assessed as inhibition of cell growth incubated for 3 days by MTT assay; format: functional, cell-based; details: MKN-7, 72 h
[2] = test system: MKN-74; assay: Anticancer activity against human MKN-74 cells assessed as inhibition of cell growth incubated for 3 days by MTT assay; format: functional, cell-based; details: MKN-74, 72 h
[3] = target: T1, Cadherin-1 (Homo sapiens) (UniProt P12830); assay: Binding affinity to human E-cadherin in human MKN-7 cell membrane protein fraction measured after 2 hrs by Western blotting based pull-down assay; format: cell membranes
T1 sequence (whole entry): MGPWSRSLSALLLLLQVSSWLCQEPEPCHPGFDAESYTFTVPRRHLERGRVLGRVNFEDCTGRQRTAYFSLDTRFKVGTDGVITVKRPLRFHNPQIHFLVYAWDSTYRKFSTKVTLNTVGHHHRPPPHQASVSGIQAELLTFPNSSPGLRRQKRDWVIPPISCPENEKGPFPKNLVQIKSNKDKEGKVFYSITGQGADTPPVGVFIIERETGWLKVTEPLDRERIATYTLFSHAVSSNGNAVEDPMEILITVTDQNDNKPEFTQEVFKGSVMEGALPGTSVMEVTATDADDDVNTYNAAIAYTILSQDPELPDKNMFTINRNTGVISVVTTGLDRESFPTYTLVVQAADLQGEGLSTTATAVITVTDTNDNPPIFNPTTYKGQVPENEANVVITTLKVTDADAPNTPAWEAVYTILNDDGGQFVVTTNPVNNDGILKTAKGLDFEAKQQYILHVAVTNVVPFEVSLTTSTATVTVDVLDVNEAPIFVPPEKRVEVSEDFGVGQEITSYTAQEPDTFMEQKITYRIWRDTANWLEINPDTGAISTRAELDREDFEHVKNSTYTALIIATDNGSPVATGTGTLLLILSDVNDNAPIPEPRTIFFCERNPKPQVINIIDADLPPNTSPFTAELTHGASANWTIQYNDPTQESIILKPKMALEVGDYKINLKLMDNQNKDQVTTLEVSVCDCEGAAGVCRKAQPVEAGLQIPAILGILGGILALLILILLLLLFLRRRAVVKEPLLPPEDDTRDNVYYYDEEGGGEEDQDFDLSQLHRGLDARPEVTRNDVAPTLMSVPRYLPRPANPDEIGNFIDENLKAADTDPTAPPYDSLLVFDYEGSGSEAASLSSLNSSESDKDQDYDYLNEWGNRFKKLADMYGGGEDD

Row | Compound | IC50 [1] | IC50 [2] | Activity [3]
1 | CC[C@H](C)[C@H](NC(=O)[C@@H](N)Cc1ccccc1)C(=O)N[C@@H](CC(=O)O)C(=O)N[C@@H](CC(C)C)C(=O)N[C@@H](CC(N)=O)C(=O)N[C@@H](Cc1ccc(O)cc1)C(=O)N[C@@H](CCSC)C(=O)N[C@H](C(=O)N[C@@H](Cc1ccc(O)cc1)C(=O)N[C@@H](Cc1cccs1)C(N)=O)C(C)C (H-FIDLNYMVY[2Thi]-NH2) | 8.62 µM | 0.98 µM | –
2 | CCCC[C@H](NC(=O)[C@H](Cc1ccc(O)cc1)NC(=O)[C@@H](NC(=O)[C@H](CCSC)NC(=O)[C@H](Cc1ccc(O)cc1)NC(=O)[C@H](CC(N)=O)NC(=O)[C@H](CC(C)C)NC(=O)[C@H](CC(=O)O)NC(=O)[C@@H](NC(=O)[C@@H](N)Cc1ccccc1)[C@@H](C)CC)C(C)C)C(N)=O (H-FIDLNYMVY[Nle]-NH2) | 10.2 µM | 0.35 µM | –
3 | CC[C@H](C)[C@H](NC(=O)[C@@H](N)Cc1ccccc1)C(=O)N[C@@H](CC(=O)O)C(=O)N[C@@H](CC(C)C)C(=O)N[C@@H](CC(N)=O)C(=O)N[C@@H](Cc1ccc(O)cc1)C(=O)N[C@@H](Cc1cccs1)C(=O)N[C@H](C(=O)N[C@@H](Cc1ccc(O)cc1)C(=O)N[C@@H](CCSC)C(N)=O)C(C)C (H-FIDLNY[2Thi]VYM-NH2) | 6.35 µM | 0.96 µM | –
4 | H-DLNYMVYM-NH2 | 13.5 µM | 20.7 µM | –
5 | H-FIDANYMVYM-OH | 9.56 µM | 5.47 µM | –
6 | H-FIDLNYFVYM-NH2 | 8.23 µM | 1.59 µM | –
7 | H-FIDLNYMAYM-OH | 14.8 µM | 16.3 µM | –
8 | H-FIDLNYMV-NH2 | 8.22 µM | 21.6 µM | –
9 | H-FIDLNYMVYA-OH | 8.78 µM | 4.5 µM | –
10 | H-FIDLNYMVYF-NH2 | 6.87 µM | 0.25 µM | –
11 | H-FIDLNYMVYL-NH2 | 9.81 µM | 1.09 µM | –
12 | H-FIDLNYMVYM-OH | 18.9 µg/mL | 13.2 µg/mL | Active
13 | H-IDLNYMVYM-NH2 | 11.4 µM | 25.7 µM | –
14 | H-KVDIVAINDP-OH | 97.3 µg/mL | – | –
15 | H-YMVYMFQYDS-OH | 79.1 µg/mL | – | –

The remaining compounds from weak to strong by IC50 [1], led by results:

Row | IC50 [1] | IC50 [2] | Activity [3] | Compound
16 | 5.8 µM | 8.84 µM | – | H-FIDLAYMVYM-OH
17 | 4.43 µM | 0.19 µM | – | CC[C@H](C)[C@H](NC(=O)[C@@H](N)Cc1ccccc1)C(=O)N[C@@H](CC(=O)O)C(=O)N[C@@H](CC(C)C)C(=O)N[C@@H](CC(N)=O)C(=O)N[C@@H](Cc1ccc(O)cc1)C(=O)N[C@@H](CCSC)C(=O)N[C@H](C(=O)N[C@@H](Cc1ccc(O)cc1)C(=O)N[C@@H](CCOC)C(N)=O)C(C)C (H-FIDLNYMVY[hSer](Me)-NH2)
18 | 4.38 µM | 3.91 µM | – | H-FADLNYMVYM-OH
19 | 4.3 µM | 17.9 µM | – | H-FIDLNYMVY-NH2
20 | 4.24 µM | 1.11 µM | – | H-FIDLNYMVAM-OH
21 | 4.03 µM | 9.29 µM | – | H-AIDLNYMVYM-OH
22 | 3.51 µM | 0.2 µM | – | CC[C@H](C)[C@H](NC(=O)[C@@H](N)Cc1ccccc1)C(=O)N[C@@H](CC(=O)O)C(=O)N[C@@H](CC(C)C)C(=O)N[C@@H](CC(N)=O)C(=O)N[C@@H](Cc1ccc(O)cc1)C(=O)N[C@@H](CCOC)C(=O)N[C@H](C(=O)N[C@@H](Cc1ccc(O)cc1)C(=O)N[C@@H](CCSC)C(N)=O)C(C)C (H-FIDLNY[hSer](Me)VYM-NH2)
23 | 3.36 µM | 0.16 µM | – | H-FIDLNYLVYM-NH2
24 | 3.01 µM | 9.05 µM | – | H-FIDLNYAVYM-OH
25 | 2.62 µM | 1.14 µM | – | H-FIDLNAMVYM-OH
26 | 1.64 µM | 0.2 µM | – | CCCC[C@H](NC(=O)[C@H](Cc1ccc(O)cc1)NC(=O)[C@H](CC(N)=O)NC(=O)[C@H](CC(C)C)NC(=O)[C@H](CC(=O)O)NC(=O)[C@@H](NC(=O)[C@@H](N)Cc1ccccc1)[C@@H](C)CC)C(=O)N[C@H](C(=O)N[C@@H](Cc1ccc(O)cc1)C(=O)N[C@@H](CCSC)C(N)=O)C(C)C (H-FIDLNY[Nle]VYM-NH2)
27 | 1.13 µM | 0.37 µM | – | H-FIDLNYMVYM-NH2
28 | 0.98 µM | 1.14 µM | – | H-FIALNYMVYM-OH
29 | 0.61 µM | 0.07 µM | – | CCCC[C@H](NC(=O)[C@H](Cc1ccc(O)cc1)NC(=O)[C@H](CC(N)=O)NC(=O)[C@H](CC(C)C)NC(=O)[C@H](CC(=O)O)NC(=O)[C@@H](NC(=O)[C@@H](N)Cc1ccccc1)[C@@H](C)CC)C(=O)N[C@H](C(=O)N[C@@H](Cc1ccc(O)cc1)C(=O)N[C@@H](CCOC)C(N)=O)C(C)C (H-FIDLNY[Nle]VY[hSer](Me)-NH2)

Reference: ChEMBL document CHEMBL5108028 (Bioorg Med Chem, 2022)
